Several values for one entry are separate records, joined by “and”; a condition that tells them apart may be missing. Identical values can stand only once.
Biological target: T1, human liver Glucokinase (GK) (Homo sapiens, UniProt P35557)
T1 construct: (His)6; made in house; host or cells: Escherichia coli
T1 sequence (P35557 1-466 isoform P35557-2): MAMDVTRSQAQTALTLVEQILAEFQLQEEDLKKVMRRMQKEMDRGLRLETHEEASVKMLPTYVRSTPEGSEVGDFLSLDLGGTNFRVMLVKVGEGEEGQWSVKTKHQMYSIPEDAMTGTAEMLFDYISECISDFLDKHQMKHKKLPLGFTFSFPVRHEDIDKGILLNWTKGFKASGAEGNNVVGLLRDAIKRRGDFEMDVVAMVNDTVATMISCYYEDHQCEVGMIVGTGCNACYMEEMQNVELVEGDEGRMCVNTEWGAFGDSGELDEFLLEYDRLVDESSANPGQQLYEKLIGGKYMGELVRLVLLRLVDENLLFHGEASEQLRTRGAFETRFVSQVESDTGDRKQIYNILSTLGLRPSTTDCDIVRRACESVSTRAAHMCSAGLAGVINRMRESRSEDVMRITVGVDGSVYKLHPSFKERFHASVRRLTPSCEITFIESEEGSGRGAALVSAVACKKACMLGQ
Experiment: Glucokinase enzyme assay, Liver GK data
Type: biochemical
Conditions: for EC50: concentration producing 50% activation above vehicle control; for EC100%: concentration producing 100% activation above vehicle control
Source text: An enzymatic Glucokinase (GK) assay using purified recombinant human liver/pancreas enzyme was used to evaluate the effects of potential small molecule modulators.
In this assay, GK catalyzes glucose phosphorylation in the presence of ATP. The product of this reaction, glucose-6-phosphate, was then oxidized by an excess of glucose-6-phosphate dehydrogenase to produce gluconate-6-phosphate with concomitant reduction of nicotinamide adenine dinucleotide (NAD). […] Human GK (Liver/Pancreas) was expressed in Escherichia coli as a (His) 6-tagged fusion protein and was purified by metal chelate affinity chromatography. The assay was performed in a final incubation volume of 80 μl in a 96-well clear low UV absorption plates. The incubation mixture consisted of 25 mM HEPES, 2 mM MgSO4, 1 mM dithiothreotol (DTT), 1 mg/ml bovine serum albumin (BSA), 1 mM ATP, 1 mM NAD, and 12 mM glucose, 10 units per ml glucose-6-phosphate dehydrogenase, and +/−300 ng per ml GK. For determination of the affinity (Km) and Vmax, different concentrations of glucose ranging from 0.5 mM to 40 mM were used in the assay; see Grimsby, J., Sarabu, R.; Grippo, J. F.; et. al. Science 2003, 301, 370-373. Production of reduced NAD (Nicotinamide Adenine Dinucleotide) was measured as changes in absorption at 340 nm in 96-well plate reader (Envision model # 2101 Multilabel Plate reader). % Activation @ 50 μM was calculated as the percentage increase in GK activity above the vehicle control with the effective concentration of the compound being 50 μM. EC50% (μM) was calculated as the effective concentration of the compound that produces 50% activation above the vehicle control, and EC100% (μM) was calculated as the effective concentration of the compound that produces 100% activation above the vehicle control.

[1] = compound 50 μM, percentage increase in GK activity above vehicle control, 12 mM glucose

Row | Compound | EC50 | EC100% | activation at 50 µM [1] | % Activation @ 50 μM [1]
1 | O=C(CSC1c2ccccc2C(=O)N1Cc1cccs1)Nc1nccs1 (centres unmarked) [Compound 14, 2-(3-Oxo-2-thiophen-2-ylmethyl-2,3-dihydro-1H-isoindol-1-ylsulfanyl)-N-thiazol-2-yl-acetamide] | 5 µM | 19.4 µM | – | –
2 | O=C(CSC1c2ccccc2C(=O)N1Cc1ccccc1)Nc1ccc(C(=O)O)cn1 (centres unmarked) [Compound 19, 6-[2-(2-Benzyl-3-oxo-2,3-dihydro-1H-isoindol-1-ylsulfanyl)-acetyamino]-nicotinic acid] | 3.2 µM | – | 146% | –
3 | O=C(COC1c2ccccc2C(=O)N1Cc1ccccc1)Nc1ccccn1 (centres unmarked) [Compound 23, 2-(2-Benzyl-3-oxo-2,3-dihydro-1H-isoindol-1-yloxy)-N-pyridin-2-yl-acetamide] | 1.76 µM | 8.71 µM | 164% | –
4 | O=C(COC1c2ccccc2C(=O)N1Cc1ccccc1)Nc1nccs1 (centres unmarked) [Compound 28, 2-(2-Benzyl-3-oxo-2,3-dihydro-1H-isoindol-1-yloxy)-N-thiazol-2-yl-acetamide] | 11.3 µM | – | 73% | –
5 | O=C(CSC1c2ccccc2C(=O)N1Cc1cccs1)Nc1cnccn1 (centres unmarked) [Compound 31, 2-(3-Oxo-2-thiophen-2-ylmethyl-2,3-dihydro-1H-isoindol-1-ylsulfanyl)-N-pyrazin-2-yl-acetamide] | 4 µM | 12 µM | 199% | –
6 | O=C(CSC1c2ccccc2C(=O)N1Cc1ccco1)Nc1nccs1 (centres unmarked) [Compound 32, 2-(2-Furan-2-ylmethyl-3-oxo-2,3-dihydro-1H-isoindol-1-ylsulfanyl)-N-thiazol-2-yl-acetamide] | 9.2 µM | – | 113% | –
7 | COC(=O)c1ccc(NC(=O)CSC2c3ccccc3C(=O)N2Cc2cccs2)nc1 (centres unmarked) [Compound 34, 6-[2-(3-Oxo-2-thiophen-2-ylmethyl-2,3-dihydro-1H-isoindol-1-ylsulfanyl)-acetylamino]-nicotinic acid methyl ester] | 1 µM | 4.1 µM | 180% | –
8 | COC(=O)c1ccc(NC(=O)CSC2c3ccccc3C(=O)N2Cc2ccccc2)nc1 (centres unmarked) [Compound 35, 6-[2-(2-Benzyl-3-oxo-2,3-dihydro-1H-isoindol-1-ylsulfanyl)-acetylamino]-nicotinic acid methyl ester] | – | 2.9 µM and 3.0 µM | 171% | –

The next lines start with the values.

Row | EC50 | EC100% | activation at 50 µM [1] | % Activation @ 50 μM [1] | Compound
9 | – | – | 13% | – | O=C(CSC1c2ccccc2C(=O)N1Cc1cccs1)Nc1ncccn1 (centres unmarked) [Compound 16, 2-(3-Oxo-2-thiophen-2-ylmethyl-2,3-dihydro-1H-isoindol-1-ylsulfanyl)-N-pyrimidin-2-yl-acetamide]
10 | 1.8 µM and 0.9 µM | 4.5 µM and 2.6 µM | – | 228% | O=C(CNC1c2ccccc2C(=O)N1Cc1ccccc1)Nc1ccccn1 (centres unmarked) [Compound 27, 2-(2-Benzyl-3-oxo-2,3-dihydro-1H-isoindol-1-ylamine)-N-pyridin-2-yl-acetamide]
11 | 4.4 µM | 17.6 µM | 156% | – | COc1ccc(CN2C(=O)c3ccccc3C2SCC(=O)Nc2nccs2)cc1 (centres unmarked) [Compound 29, 2-[2-(4-Methoxybenzyl)-3-oxo-2,3-dihydro-1H-isoindol-1-ylsulfanyl]-N-thiazol-2-yl-acetamide]
12 | 9.5 µM | – | 102% | – | O=C(CSC1c2ccccc2C(=O)N1Cc1ccc(Cl)cc1)Nc1nccs1 (centres unmarked) [Compound 30, 2-[2-(4-Chlorobenzyl)-3-oxo-2,3-dihydro-1H-isoindol-1-ylsulfanyl]-N-thiazol-2-yl-acetamide]
13 | 2.6 µM | – | 229% | – | CN(C)c1ccc(CN2C(=O)c3ccccc3C2SCC(=O)Nc2nccs2)cc1 (centres unmarked) [Compound 33, 2-[2-(4-Dimethylaminobenzyl)-3-oxo-2,3-dihydro-1H-isoindol-1-ylsulfanyl]-N-thiazol-2-yl-acetamide]
14 | 9 µM | – | 143% | – | CCOC(=O)Cc1csc(NC(=O)CSC2c3ccccc3C(=O)N2Cc2cccs2)n1 (centres unmarked) [Compound 36, {2-[2-(3-Oxo-2-thiophen-2-ylmethyl-2,3-dihydro-1H-isoindol-1-ylsulfanyl)-acetylamino]-thiazol-4-yl}-acetic acid ethyl ester]
15 | 0.57 µM | 1.57 µM | 256% | – | COC(=O)c1ccc(NC(=O)COC2c3ccccc3C(=O)N2Cc2ccccc2)nc1 (centres unmarked) [Compound 37, 6-[2-(2-Benzyl-3-oxo-2,3-dihydro-1H-isoindol-1-yloxy)-acetylamino]-nicotinic acid methyl ester]

Source: patent US7531671B2, “Dihydroisoindolones as allosteric modulators of glucokinase” (Janssen Pharmaceutica N.V., priority 2005, dated 2009)
